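Results reflect a 48-hour exposure of cells in 96-well plates to compound at five concentrations. The concentration for 50% growth inhibition is given as GI50. TGI: concentration producing complete growth inhibition.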
Key:
Experiment in all cases: growth of human tumour cells (NCI), 48 h
HS 578T breast = system: HS 578T breast
HL-60(TB) leukemia = system: HL-60(TB) leukemia
RXF 393 renal = system: RXF 393 renal
MOLT-4 leukemia = system: MOLT-4 leukemia
OVCAR-8 ovarian = system: OVCAR-8 ovarian
BT-549 breast = system: BT-549 breast
TK-10 renal = system: TK-10 renal
K-562 leukemia = system: K-562 leukemia
HCC-2998 colon = system: HCC-2998 colon
SF-539 CNS = system: SF-539 CNS
786-0 renal = system: 786-0 renal

| Structure (SMILES) | TGI (HS 578T breast) | TGI (HL-60(TB) leukemia) | TGI (RXF 393 renal) | TGI (MOLT-4 leukemia) | TGI (OVCAR-8 ovarian) | TGI (BT-549 breast) | TGI (TK-10 renal) | TGI (K-562 leukemia) | TGI (HCC-2998 colon) | TGI (SF-539 CNS) | TGI (786-0 renal) | GI50 (SF-539 CNS) | GI50 (HS 578T breast) |
| --- | --- | --- | --- | --- | --- | --- | --- | --- | --- | --- | --- | --- | --- |
| C[n+]1cccc(/C=C/c2ccc3cccc(O)c3n2)c1 | > 100 µM | 82.3 µM | > 100 µM | > 100 µM | > 100 µM | > 100 µM | > 100 µM | > 100 µM | > 100 µM | > 100 µM | > 100 µM | – | – |
| CC(C)CNc1nc(N)[nH]c(=O)c1NC=O | > 100 µM | > 100 µM | > 100 µM | > 100 µM | > 100 µM | > 100 µM | > 100 µM | > 100 µM | > 100 µM | > 100 µM | > 100 µM | – | – |
| COc1ccc(CNc2nc(NCc3ccc(OC)cc3)nc(NC(C)C)n2)cc1 | > 100 µM | 17.7 µM | 38.5 µM | > 100 µM | 33.6 µM | – | 70.4 µM | > 100 µM | 64.8 µM | 27.3 µM | 32.9 µM | – | – |
| NCS(=O)(=O)O | > 100 µM | > 100 µM | > 100 µM | > 100 µM | > 100 µM | > 100 µM | > 100 µM | > 100 µM | > 100 µM | 52.6 µM | > 100 µM | – | – |
| Cn1cnc([N+](=O)[O-])c1SCC(=O)O | > 100 µM | > 100 µM | > 100 µM | – | > 100 µM | > 100 µM | > 100 µM | > 100 µM | > 100 µM | – | > 100 µM | – | – |
| CCOC(=O)c1c2c(c(O)c3ccccc3c(O)n(-c3ccc(C)cc3)c1C)C(=O)C=CC2=O | 66 µM | 51.4 µM | 55.7 µM | 29.4 µM | 41.3 µM | 71.2 µM | 57.2 µM | 47.2 µM | 36.9 µM | 53.9 µM | 33.5 µM | – | – |
| COc1cnc2c(c1)C(=O)c1c-2n(CCCN2CCNCC2)c(=O)c2cc(Cl)ccc12 | – | – | – | – | – | – | – | – | – | 2.63 µM | – | 1330 nM | – |
| N=C(N)c1ccc(-c2ccc(-c3ccc(Cl)cn3)s2)cc1 | 5.35 µM | – | – | – | – | – | – | – | – | 3.01 µM | – | 1630 nM | 2050 nM |
| CCOC(=O)C1=C(C)N(C)C(=S)NC1c1cccc(O)c1 (centres undefined) | > 100 µM | 64 µM | 52.4 µM | > 100 µM | > 100 µM | 87.9 µM | > 100 µM | > 100 µM | 92.6 µM | > 100 µM | > 100 µM | – | – |
| CC(C)(C)C1CCC2(CC1)CCN(CCCN1CCOCC1)CC2 | > 100 µM | 41.8 µM | > 82.3 µM | > 65.4 µM | > 100 µM | > 100 µM | > 100 µM | 30.5 µM | 35.4 µM | > 51.1 µM | 51 µM | – | – |
| O=C(c1cc(Br)ccc1O)c1cc(Br)ccc1O | > 100 µM | 44.1 µM | 27.9 µM | 39 µM | 32 µM | 33.9 µM | 33 µM | 33.5 µM | 33.2 µM | 38.2 µM | 30.6 µM | – | – |
| COc1cc2ccc1-c1cc(ccc1O)CC1c3cc4c(cc3CCN1C)Oc1c(OC)cc3c(c1O4)C(C2)N(C)CC3 (centres undefined) | – | 4.53 µM | 3.24 µM | 4.22 µM | – | – | 24.7 µM | 3.27 µM | 3.06 µM | 3.27 µM | 3.15 µM | – | – |
| CN(C)CCNC(=O)c1cccc2nc3c4ccccc4c4ccccc4c3nc12 | – | 4.09 µM | 4.65 µM | 4.96 µM | 7.76 µM | 6.25 µM | 9.86 µM | 3.57 µM | 11.5 µM | 3.18 µM | – | – | – |
